The values below come from US20240238268A1, “TREATMENTS AND METHODS FOR TREATING ALZHEIMER'S DISEASE” (Board of Supervisors of Louisiana State University and …, priority 2021, published 2024).

Type in all cases: in vivo, mouse
In one assay the test system is GFAP. Kind of assay: GFAP protein level in brain, capillary-based immunoassay. The conditions noted are these: aged 3xTg-AD female mice; TP-064 30 mg/kg, 7 days, IP or PRMT4-AAV. On the procedure: Leukocytes velocity measurements were performed by linescans (512 lines/sec). *p<0.05 compared to aged 3xTg-AD male or C57 female evaluated by unpaired t-test. FIGS. 18A and 18B are capillary-based immunoassay and associated graphs showing PRMT4 inhibitor (TP-064) or AAV knockdown of PRMT4 reduced GFAP levels in aged 3xTg-AD female mice. Glial fibrillary acidic protein (GFAP, 55 kDa) was increased in aged 3xTg-AD female mice v. C57, which indicates neuroinflammation, but reversed with TP-064 (30 mg/kg, 7 days, IP) or PRMT4-AAV treatment in cortex, shown in FIG. 18A, and hippocampus, shown in FIG. 18B. Protein level was measured by capillary-based immunoassay and normalized to total protein. *p<0.05 as compared to C57, #p<0.05 v. 3xTg-AD evaluated by one-way ANOVA with Tukey's post-hoc analyses.
Capillary-phoresis immunoassay via ProteinSimple®: Quantification of all protein targets was achieved using Simple Western analysis in a Jess™ apparatus per the manufacturer's protocol (ProteinSimple, Bio-techne, Minneapolis, MN). […] Following homogenization and centrifugation (10,000×g, 5 min, 4° C.), protein concentration was determined in tissue protein supernatant samples using DC Protein Assay (Cat. No. 5000112, Bio-Rad Laboratories, Hercules, California) according to manufacturer instructions. […]

In the next assay the test system is E-Cadherin. Kind of assay: E-Cadherin level, protein chip assay. The conditions noted are these: aged 3xTg-AD female mice; cortex and hippocampus; 30 mg/kg, 7 days, IP. Here is the method:
FIGS. 19A-19F are six graphs showing PRMT4 inhibitor (TP-064) reduced ICAM-1, VCAM-1 and enhanced E-Cadherin protein levels in aged female 3xTg-AD mice. In FIGS. 19A-19D, aged 3xTg-AD female mice v. […] Adhesion molecules were assessed via protein chip assay in the cortex and hippocampus. * p<0.05 evaluated by one-way ANOVA with Tukey's post-hoc analyses.

The next assay has as its system iNOS. Briefly: iNOS protein level in brain, capillary-phoresis. The following applies: treated 3xTg-AD mice; control = 100%. The text has this:
Capillary-phoresis immunoassay via ProteinSimple®: Quantification of all protein targets was achieved using Simple Western analysis in a Jess™ apparatus per the manufacturer's protocol (ProteinSimple, Bio-techne, Minneapolis, MN). Protein was extracted from dissected tissue in an extraction buffer consisting of T-PER® Tissue Protein Extraction Reagent (Cat. No. 78510, Thermo Fischer Scientific, Waltham, MA) and Halt™ Protease Inhibitor Cocktail (Cat. No. 87785, Thermo Fischer Scientific, Waltham, MA). Following homogenization and centrifugation (10,000×g, 5 min, 4° C.), protein concentration was determined in tissue protein supernatant samples using DC Protein Assay (Cat. No. 5000112, Bio-Rad Laboratories, Hercules, California) according to manufacturer instructions. […] Antibody diluent (ProteinSimple, Bio-techne, Minneapolis, MN) was used for all antibody dilutions as follows: PRMT4 (1:50, RRID: AB_2068436), PRMT6 (1:100, Cell Signaling Technology cat. 14641), eNOS (1:200, RRID: AB_10850618), nNOS (1:100, RRID: AB_2152488), iNOS (1:100, RRID: AB_10000625), DDAH2 (1:50, RRID: AB_2640442) Antibodies were detected using HRP-conjugated secondary anti-rabbit, and -mouse. Relative protein levels were calculated by measuring the area under the peak of a chemiluminescent chromatogram and normalized to total capillary chemiluminescence for a given sample. […]

For the compound `CNCCN1CCC(c2cc(CN(C)C(=O)c3cccc(Oc4ccccc4)c3)ccn2)CC1` [TP-064, N-Methyl-N-((2-(1-(2-(methylamino)ethyl)piperidin-4-yl)pyridin-4-yl)methyl)-3-phenoxybenzamide], in the assay with GFAP, the “GFAP level in cortex” value was “reduced” and the “GFAP level in hippocampus” value was “reduced”. Moreover, the E-Cadherin level entry with E-Cadherin is given as “elevated”. Besides, in the assay on iNOS, the “iNOS level in cortical lysates” value was 197%±24.1 and the “iNOS level in hippocampal lysates” value was 157%±17.5.
